Assay results: patent US12145929B2, “Piperidine derivative and pharmaceutical composition for inhibiting autotaxin comprising same” (NEXTGEN BIOSCIENCE CO., LTD., priority 2021, dated 2024)

The compounds below were run against human Autotaxin protein (Homo sapiens, UniProt Q13822) (assay: Evaluation of inhibitory activity against human Autotaxin protein (18:1 LysoPC substrate, choline assay kit, absorbance 570 nm)). Conditions: compound at 500 nM, 2 hours at 37° C.
Format: biochemical
Experimental: The solution of each synthesized compound (80 uM, 100% dimethyl sulfoxide) was sequentially diluted 5 times with dimethyl sulfoxide to prepare 6 concentrations. Each concentration of compound was diluted two-fold with 1× test buffer (50 mM Tris-Cl (pH 8.0), 5 mM KCl, 1 mM CaCl2), 1 mM MgCl2, 140 mM NaCl, deionized water, 1 mg/mL BSA), and 1 uL (1.25% dimethyl sulfoxide) of this diluted mixture was dispensed into each well of a 96 well clear round bottom plate. 9 uL of 1× test buffer were added to each well, followed by the addition of 20 uL of 240 nM human Autotaxin protein (buffer: 50 mM Tris-HCl, pH 8.0, with 150 mM sodium chloride and 20% glycerol). 10 uL of sonicated 360 uM 18:1 LysoPC (diluted with 1× test buffer) were added to each well. The reaction was performed for 2 hours in a shaking incubator at 37° C., and a secondary reaction mixture (choline assay kit, KA1662) (65 uL of 1× test buffer: 1 uL of choline oxidase: 1 uL of dye probe) was prepared. 60 uL of the secondary reaction mixture were added to the reaction plate and reacted on a shaker for 30 minutes. Using a SpectraMax iD3 microplate reader, the absorbance was measured at a wavelength of 570 nm. The percentage of inhibition activity (% inhibition) was calculated by the Formula: (1−Absorbancetestgroup/Absorbancecontrol group)×100.

Row | inhibition at 0.5 µM [%] | Structure (SMILES)
1 | 4.8 | Fc1cc2c(cc1F)CC(Nc1ncc(C3CC(N4CCC(c5nnn[nH]5)CC4)=NO3)cn1)C2 (centres unmarked) [Example 52, 5-(3-(4-(1H-tetrazol-5-yl)piperidin-1-yl)-4,5-dihydroisoxazol-5-yl)-N-(5,6-difluoro-2,3-dihydro-1H-inden-2-yl)pyrimidin-2-amine]
2 | 95.3 | CC1CC(c2cnn[nH]2)CCN1c1nnc(-c2cnc(NC3Cc4cc(F)c(F)cc4C3)nc2)o1 (centres unmarked) [Example 54, N-(5,6-difluoro-2,3-dihydro-1H-inden-2-yl)-5-(5-(2-methyl-4-(1H-1,2,3-triazol-5-yl)piperidin-1-yl)-1,3,4-oxadiazol-2-yl)pyrimidin-2-amine]
3 | 88.1 | Fc1cc(F)cc(CNc2ncc(-c3nnc(N4CCC(c5cnn[nH]5)CC4)o3)cn2)c1 [Example 57, 5-(5-(4-(1H-1,2,3-triazol-5-yl)piperidin-1-yl)-1,3,4-oxadiazol-2-yl)-N-(3,5-difluorobenzyl)pyrimidin-2-amine]
4 | 84 | Fc1ccc(CNc2ncc(-c3nnc(N4CCC(c5cnn[nH]5)CC4)o3)cn2)cc1F [Example 58, 5-(5-(4-(1H-1,2,3-triazol-5-yl)piperidin-1-yl)-1,3,4-oxadiazol-2-yl)-N-(3,4-difluorobenzyl)pyrimidin-2-amine]
5 | 98.5 | Brc1cc(Br)cc(CNc2ncc(-c3nnc(N4CCC(c5cnn[nH]5)CC4)o3)cn2)c1 [Example 59, 5-(5-(4-(1H-1,2,3-triazol-5-yl)piperidin-1-yl)-1,3,4-oxadiazol-2-yl)-N-(3,5-dibromobenzyl)pyrimidin-2-amine]
6 | 42.9 | Fc1cc2c(cc1F)CC(Nc1ncc(-c3nnc(N4CCC(N5CCOCC5)CC4)o3)cn1)C2 [Example 63, N-(5,6-difluoro-2,3-dihydro-1H-inden-2-yl)-5-(5-(4-morpholinopiperidin-1-yl)-1,3,4-oxadiazol-2-yl)pyrimidin-2-amine]
7 | 28.1 | OC1CN(C2CCN(c3nnc(-c4cnc(NC5Cc6cc(F)c(F)cc6C5)nc4)o3)CC2)C1 [Example 64, 1-(1-(5-(2-((5,6-Difluoro-2,3-dihydro-1H-inden-2-yl)amino)pyrimidin-5-yl)-1,3,4-oxadiazol-2-yl)piperidin-4-yl)azetidin-3-ol]
8 | 66.8 | O=C(NO)C1CCN(c2nnc(-c3cnc(NC4Cc5cc(F)c(F)cc5C4)nc3)o2)CC1 [Example 69, 1-(5-(2-((5,6-Difluoro-2,3-dihydro-1H-inden-2-yl)amino)pyrimidin-5-yl)-1,3,4-oxadiazol-2-yl)-N-hydroxypiperidine-4-carboxamide]

More lines, now with the values behind:

Row | Structure (SMILES) | inhibition at 0.5 µM [%]
9 | Fc1ccc2c(c1)CC(Nc1ncc(C3CC(N4CCC(c5nnc(C(F)(F)F)o5)CC4)=NO3)cn1)C2 (centres unmarked) [Example 53, N-(5-fluoro-2,3-dihydro-1H-inden-2-yl)-5-(3-(4-(5-(trifluoromethyl)-1,3,4-oxadiazol-2-yl)piperidin-1-yl)-4,5-dihydroisoxazol-5-yl)pyrimidin-2-amine] | 10.2
10 | c1cc2c(cc1CNc1ncc(-c3nnc(N4CCC(c5cnn[nH]5)CC4)o3)cn1)OCO2 [Example 55, 5-(5-(4-(1H-1,2,3-triazol-5-yl)piperidin-1-yl)-1,3,4-oxadiazol-2-yl)-N-(benzo[d][1,3]dioxol-5-ylmethyl)pyrimidin-2-amine] | 52
11 | Clc1ccc(CNc2ncc(-c3nnc(N4CCC(c5cnn[nH]5)CC4)o3)cn2)cc1Cl [Example 56, 5-(5-(4-(1H-1,2,3-triazol-5-yl)piperidin-1-yl)-1,3,4-oxadiazol-2-yl)-N-(3,4-dichlorobenzyl)pyrimidin-2-amine] | 55.8
12 | Cc1nc(NC2Cc3ccc(Br)cc3C2)ncc1-c1nnc(N2CCC(c3cnn[nH]3)CC2)o1 (centres unmarked) [Example 60, 5-(5-(4-(1H-1,2,3-triazol-5-yl)piperidin-1-yl)-1,3,4-oxadiazol-2-yl)-N-(5-bromo-2,3-dihydro-1H-inden-2-yl)-4-methylpyrimidin-2-amine] | 95.3
13 | Cc1nc(NC2Cc3cc(Br)c(Br)cc3C2)ncc1-c1nnc(N2CCC(c3cnn[nH]3)CC2)o1 [Example 61, 5-(5-(4-(1H-1,2,3-triazol-5-yl)piperidin-1-yl)-1,3,4-oxadiazol-2-yl)-N-(5,6-dibromo-2,3-dihydro-1H-inden-2-yl)-4-methylpyrimidin-2-amine] | 70
14 | c1ccc2c(c1)CC(Nc1ncc(CCCN3CCC(c4c[nH]nn4)CC3)cn1)C2 [Example 62, 5-(3-(4-(1H-1,2,3-triazol-4-yl)piperidin-1-yl)propyl)-N-(2,3-dihydro-1H-inden-2-yl)pyrimidin-2-amine] | 70.2
15 | NS(=O)(=O)C1CCN(c2nnc(-c3cnc(NC4Cc5cc(F)c(F)cc5C4)nc3)o2)CC1 [Example 65, 1-(5-(2-((5,6-Difluoro-2,3-dihydro-1H-inden-2-yl)amino)pyrimidin-5-yl)-1,3,4-oxadiazol-2-yl)piperidine-4-sulfonamide] | 58
16 | O=c1[nH]nc(C2CCN(c3nnc(-c4cnc(NC5Cc6cc(F)c(F)cc6C5)nc4)o3)CC2)o1 [Example 66, 5-(1-(5-(2-((5,6-Difluoro-2,3-dihydro-1H-inden-2-yl)amino)pyrimidin-5-yl)-1,3,4-oxadiazol-2-yl)piperidin-4-yl)-1,3,4-oxadiazol-2(3H)-one] | 86.8
17 | O=C(O)C1CCN(c2nnc(-c3cnc(NC4Cc5cc(F)c(F)cc5C4)nc3)o2)CC1 [Example 67, 1-(5-(2-((5,6-Difluoro-2,3-dihydro-1H-inden-2-yl)amino)pyrimidin-5-yl)-1,3,4-oxadiazol-2-yl)piperidine-4-carboxylic acid] | 30.9
18 | O=C(O)CC1CCN(c2nnc(-c3cnc(NC4Cc5cc(F)c(F)cc5C4)nc3)o2)CC1 [Example 68, 2-(1-(5-(2-((5,6-Difluoro-2,3-dihydro-1H-inden-2-yl)amino)pyrimidin-5-yl)-1,3,4-oxadiazol-2-yl)piperidin-4-yl)acetic acid] | 87.1
19 | COC1(c2c[nH]nn2)CCN(c2nnc(-c3cnc(NC4Cc5cc(F)c(F)cc5C4)nc3)o2)CC1 [Example 70, N-(5,6-difluoro-2,3-dihydro-1H-inden-2-yl)-5-(5-(4-methoxy-4-(1H-1,2,3-triazol-4-yl)piperidin-1-yl)-1,3,4-oxadiazol-2-yl)pyrimidin-2-amine] | 97.9
20 | Fc1cc2c(cc1F)CC(Nc1ncc(-c3nnc(N4CCC(F)(c5cnn[nH]5)CC4)o3)cn1)C2 [Example 71, N-(5,6-difluoro-2,3-dihydro-1H-inden-2-yl)-5-(5-(4-fluoro-4-(1H-1,2,3-triazol-5-yl)piperidin-1-yl)-1,3,4-oxadiazol-2-yl)pyrimidin-2-amine] | 98.6
